According to patent US4209612A, “Fortimicin factors KF and KG and process for production thereof” (Abbott Laboratories, priority 1977, dated 1980):
In brackets after ≈: the same amount, converted by molar mass. Entries after “also recorded” stand apart in the source; their conditions may differ.

How the values were obtained:
[1] = test system: Bacillus subtilis No. 10707; experiment: Minimum inhibitory concentration, agar dilution method at pH 8.0; type: cell-based
From the text: (§1) In the following Table 4, the antibacterial spectra of Fortimicin KF and Fortimicin KG against various microorganisms are set forth.
(§2) (Minimum Inhibitory Concentration, γ/ml measured by
(§3) agar dilution method at pH 8.0)

[2] = test system: Escherichia coli ATCC 26; experiment: as above; type: cell-based; conditions: ATCC26
From the text: as §1, §2, §3

[3] = test system: Klebsiella pneumoniae ATCC 10031; experiment: as above; type: cell-based; conditions: ATCC10031
From the text: as §1, §2, §3

[4] = test system: Proteus vulgaris ATCC 6897; experiment: as above; type: cell-based; conditions: ATCC6897
From the text: as §1, §2, §3

[5] = test system: Salmonella typhosa ATCC 9992; experiment: as above; type: cell-based; conditions: Salmonella enterica
From the text: as §1, §2, §3

[6] = test system: Shigella sonnei ATCC 9290; experiment: as above; type: cell-based; conditions: ATCC9290
From the text: as §1, §2, §3

[7] = test system: Staphylococcus aureus ATCC 6538P; experiment: as above; type: cell-based; conditions: ATCC6538P
From the text: as §1, §2, §3

[8] = test system: Gram-positive and Gram-negative bacteria; experiment: Antibacterial spectrum (overall); type: cell-based; conditions: in words
From the text: as §1, §2, §3

[9] = test system: Bacillus subtilis No. 10707; experiment: Antibacterial activity of the preparate (units/mg), paper disc method; type: cell-based
Experimental: After the completion of fermentation, the culture liquor is adjusted to pH 2.5 with concentrated sulfuric acid and is stirred for 30 minutes. Thereafter, about 7 kg of a filter aid, Radiolite No. 600 (product of Showa Kagaku Kogyo Co., Ltd.) is added to the culture liquor and the microbial cells are removed by filtration. The filtrate is adjusted to pH 7.5 by the addition of 6 N sodium hydroxide. The resulting filtrate is passed through a column packed with about 20 L. of a cation exchange resin, Amberlite IRC-50 (ammonia form). The active principles are adsorbed on the resin. After the resin is washed with water, elution of the active principles is carried out with 1 N aqueous ammonia. The eluate is subjected to determination of activity by a paper disc method using an agar plate of Bacillus subtilis No. 10707. Fractions showing activity are combined and concentrated under reduced pressure to about 1 L. The concentrate is passed through a column packed with 500 ml of an anion exchange resin, Dowex 1×2 (OH form) and then about 2 L. of water is passed through the column. In this manner, impurities are removed and the active principles are eluted with water. The active fractions are combined and concentrated under reduced pressure to about 100 ml. The concentrate is then passed through a column packed with about 50 ml of active carbon powder. The active principles are adsorbed on the active carbon. The column is washed with water. The effluent and washings are discarded. Elution is then carried out with 0.2 N sulfuric acid. The eluate is subjected to determination of activity by a paper disc method using Bacillus subtilis No. 10707. The active fractions are combined and passed through a column of an anion exchange resin, Dowex 44 (OH form) and elution of the active principles is carried out with water. The active fractions are combined and concentrated to about 60 ml. The concentrate is then freeze-dried to obtain a crude powder of Fortimicin complex. The yield of the crude powder is about 40 g.
(§4) The powder is charged over about 500 ml of silica gel in a glass column to form a uniform, thin layer. The silica gel is previously suspended in a mixed solvent of chloroform, ethanol, concentrated aqueous ammonia and acetone (2:2:1:2 by volume), and packed in the glass column to form a tight, uniform layer. The column is then thoroughly washed with the same solvent. After the crude powder is charged, the solvent having the same composition as described above is poured gradually into the column from the top and thereafter elution is carried out continuously at a flow rate of 50 ml/hour. The eluate is recovered in 20 ml fractions and the activity of each of the fractions is determined by a paper disc method using Bacillus subtilis No. 10707. First, Fortimicin KF is eluted followed by Fortimicin A and Fortimicin D. The active fractions are subjected to thin layer chromatography. The fractions containing Fortimicin KF are collected and concentrated under reduced pressure to remove the solvent.
The residue is dissolved in a small amount of water and then the solution is freeze-dried to obtain about 2 g of a purified preparate of the free base of Fortimicin KF.
as §4, with “This powder” for “The powder”, “the” for “the crude”, “10707. […]” for “10707. First, Fortimicin KF is eluted followed by Fortimicin A and Fortimicin D. The active fractions are subjected to thin layer chromatography. The fractions containing Fortimicin KF are collected and concentrated under reduced pressure to remove the solvent.”

[10] = Solubility of the free base; type: physicochemical; conditions: for solubility in organic solvents / solubility in ethanol and acetone / solubility in methanol / solubility in water: free base; for solubility in organic solvents: chloroform, benzene, ethyl acetate, butyl acetate, ether, butanol, petroleum ether, n-hexane
[11] = Example 3, before cellulose column chromatography
[12] = Example 3, purified preparate of the free base after cellulose column chromatography
[13] = purified preparate of the free base, Examples 1 and 2 (1 mg of a pure preparate defined as 1000 units)

| SMILES | MIC [1] | MIC [2] | MIC [3] | MIC [4] | MIC [5] | MIC [6] | MIC [7] | antibacterial activity [8] | antibacterial activity ([8]; listed as KG) | activity [9, 11] | activity [9, 12] | activity ([9]; Example 4) | activity [9, 13] | solubility in organic solvents [10] | solubility in ethanol and acetone [10] | solubility in methanol [10] | solubility in water [10] | solubility in the ordinary organic solvents [10] | antibacterial activity ([8]; listed as KF) |
| --- | --- | --- | --- | --- | --- | --- | --- | --- | --- | --- | --- | --- | --- | --- | --- | --- | --- | --- | --- |
| CNC1C(O)C(OC2OC(C(C)N)=CCC2N)C(N)C(O)C1OC (stereo not drawn) [Fortimicin KG] | 4.5 µg/mL (≈ 13 µM) | 4.5 µg/mL (≈ 13 µM) | 4.5 µg/mL (≈ 13 µM) | 4.5 µg/mL (≈ 13 µM) | 2.3 µg/mL (≈ 6.64 µM) | 9 µg/mL (≈ 26 µM) | 1.1 µg/mL (≈ 3.18 µM) | strong antibacterial activity against a broad range of Gram-positive and Gram-negative bacteria | broad antibacterial activity | 860 units/mg | 980 units/mg | 985 units/mg | about 970 units/mg | insoluble | slightly soluble | soluble | readily soluble; also recorded: very soluble | poorly soluble | – |
| CNC1C(O)C(OC2OC(CN)=CCC2N)C(N)C(O)C1OC (stereo not drawn) [Fortimicin KF] | 4.2 µg/mL (≈ 12.6 µM) | 4.2 µg/mL (≈ 12.6 µM) | 4.2 µg/mL (≈ 12.6 µM) | 4.2 µg/mL (≈ 12.6 µM) | 4.2 µg/mL (≈ 12.6 µM) | 8.4 µg/mL (≈ 25.3 µM) | 2.1 µg/mL (≈ 6.32 µM) | strong antibacterial activity against a broad range of Gram-positive and Gram-negative bacteria | – | 860 units/mg | 980 units/mg | 985 units/mg | about 970 units/mg | insoluble | slightly soluble | soluble | readily soluble; also recorded: very soluble | poorly soluble | broad antibacterial activity |
